Results reported in patent US5298621A, “Oligopeptide derivatives of ipoxantine endowed with immunomodulating activity and pharmaceutical compositions containing same” (Sigma-Tau Industrie Farmaceutiche Riunite S.p.A., priority 1990, dated 1994).

Assays:
rat granulocytes [1] = test: "In vitro" chemotactic activity of rat granulocytes (modified Boyden chamber); format: cell-based; conditions: for "in vitro" chemotaxis (μ ± S.E.): 10 mcg/mL, granulocytes of untreated rats; for chemotactic activity of rat granulocytes versus the control (in words): in vitro and in vitro-ex vivo
Description: (§1) Test 3 Assessment of the "in vitro" and "in vitro-ex vivo" effect of ST 657 and ST 789 on the chemotactic activity of rat granulocytes.
(§2) Male Fisher-344 rats aged about 3 months were used (6-8 animals for each experimental group).
(§3) The compounds were tested "in vitro", 10 mcg/mL, and "in vitro-ex vivo" following administration of 25 mg/kg/day from day -5 to day -1 (taking of blood sample at day 0).
(§4) The experimental procedure is described by Cates, L. K. et al (1987), Modified Boyden chamber method of measuring polymorphonuclear leukocyte chemotaxis, Leukocyte Chemotaxis, Raven Press, N.Y. 67.
(§5) Blood samples were collected from animals sacrificed by decapitation. Following passage through heparinized gauze, blood was diluted (1:1) with dextran (1.5% in saline) and allowed to sediment for 90 minutes.
The concentration of the granulocytes, collected from blood via known techniques, was adjusted to 2×10^6 cells/mL in Hank's medium. They were then seeded on 3 μMillipore filters which were placed in migration chambers.
These chambers were prepared using Hank's medium to evaluate the spontaneous migration, and casein (2 mL of solution, at the concentration 5 mg/mL) to evaluate the induced migration.
In performing the "in vitro" test, granulocytes of untreated animals were used, to which the compounds had been added before seeding thereof on the Millipore filters preparation of migration chambers.
Following incubation of the samples at 37° C. and 5% CO2 for 60 minutes, the filters were stained and mounted on microscope slides.
Microscopic examination of samples versus control allows the distance (in μm) run by the two most forward granulocytes in the framed field to be determined. Granulocyte migration is determined by calculating the mean value of 10 readings performed as a whole on two filters per sample.
The results obtained were statistically processed with Student's "t" test (Biostatistics in Pharmacology, loc, cit.).

K. pneumoniae = test: Protective effect in immunodepressed mice experimentally infected with K. pneumoniae; format: in vivo; conditions: for % Mortality: cyclophosphamide immunodepressed
Excerpt: Test 2 Assessment of the protective effect induced by ST 657, ST 733, ST 754 and ST 789 on immunodepressed mice experimentally infected.
Male CD1 mice (Charles River, Italy) of different ages were used: mice aged 6 and 12 weeks infected with Klebsiella and mice aged 7 weeks infected with Salmonella (10 mice per group).
Systemic infection in mice was induced via i.p. inoculum of either a pathogenic strain of Klebsiella (K. pneumoniae) or a pathogenic strain of Salmonella (S. typhimurium), which were able to provoke death of the animals within 5 and 20 days, respectively, following the challenge.
Infective doses prepared from overnight broth cultures corresponding to 1.5×10^5 and 3.5×10^5 live cells of K. pneumoniae, and 1×10^3 live cells of S. typhimurium were suspended in 0.2 mL of 5% gastric mucine and then injected.
The immunosuppressor (cyclophosphamide) was administered i.p. in 0.2 mL of sterile saline, 100 mg/kg, 5 days before the infective challenge.
The compounds were administered i.p., 0.25 and 25 mg/kg/day, from day -5 to day -1 (challenge at day 0).
The results obtained are expressed as % mortality and statistically processed with the Fisher's exact test (Biostatistics in Pharmacology, vol. II, Pergamon Press).

rat granulocytes [2] = test: "In vitro-ex vivo" chemotactic activity of rat granulocytes; conditions: 25 mg/kg/day i.p. from day -5 to day -1, blood sample at day 0
Description: as §1, §2, §3, §4, §5
The concentration of the granulocytes, collected from blood via known techniques, was adjusted to 2×10^6 cells/mL in Hank's medium. They were then seeded on 3 μMillipore filters which were placed in migration chambers. […]
Microscopic examination of samples versus control allows the distance (in μm) run by the two most forward granulocytes in the framed field to be determined. Granulocyte migration is determined by calculating the mean value of 10 readings performed as a whole on two filters per sample. […]

Leukemia L 1210 cells = test: Protective effect in L 1210 Leukemia-bearing mice; format: in vivo; conditions: for Dead/total / MST (mean survival time calculated by the median and the first interquartile range): 0.25 mg/kg i.p. from day +1 to day +10; for Weight control (x ± S.E.): 0.25 mg/kg/day day +1 to +10, in g (unit assumed); for number of surviving animals at the indicated day: 0.25 mg/kg/day
Description: Test 4 Assessement of the protective effect of ST 657 and ST 789 in tumor-bearing mice.
Male DBA/2 mice and male CD1 mice (Charles River), both aged 6 weeks, were used.
DBA/2 mice were inoculated i.p. with 1×10^5 Leukemia L 1210 cells (ATCC-American Type Culture Collection-Cell Lines & Hybridomas, 5th Ed., 1985) in 0.1 mL of Hank's medium.
The compounds were adminstered i.p. in sterile saline (0.25 mg/kg/day) from day +1 to day +10 (tumor transplantation at day 0).
Also the body weight of the animals was monitored, from day 0 to day +16 for the L 1210 leukemia-bearing mice, and from day 0 to day +21 for the S 180 sarcoma-bearing mice.
Monitoring of body weight was conducted in order to evaluate the evolution of the neoplastic process. Compounds activity was assessed as Mean Survival Time (MST).

[3] = system: plaque-forming cells (PFC) in the spleen of SRBC-immunized mice; test: Primary antibody production (Jerne test) in the spleen of SRBC immunized mice; format: in vivo
Description: Test 1 Assessment of the effect of ST 657 and ST 789 on the primary antibody production (Jerne test) in the spleen of SRBC (Sheep Red Blood Cells) immunized mice.
Male B6 D2 F1 mice (Charles River, Italy) aged 7-8 weeks (6 animals per group) were used. In this test, the animals were examined separately.
The compounds were administered i.p. at the doses of 2.5 and 25 mg/kg (single administration) the same day of immunization (Table 1) or, at the dose of 2.5 mg/kg/day (repeated administrations), at days -2, 0 and +2 (immunization at day 0) (Table 2).
The experimental procedure has been described by Jerne, N.K. et al, Transpl. Rev., 18, 130 (1974). In particular, the animals were immunized by i.p. administrations of a SRBC suspension (1×10^7 cells/mouse in 0.2 mL of sterile saline).
5 days following treatment, the spleens were aseptically excised from the sacrificed animals.
The concentration of the splenocytes obtained from the spleen was adjusted to 1×10^7 cells/mL. Aliquots of 0.1 mL of suspension were mixed with warm agar-Hank's (2 mL) and 10% SRBC in PBS buffer (0.2 mL), seeded in Petri dishes and incubated at 37° C. for 60 minutes (samples tested in triplicates). Following addition of complement (2 mL of guinea pig serum diluted 1:10 in Tris buffer), Petri dishes were further incubated at 37° C. for 30 minutes. In the presence of complement, the antibody-secreting cells of splenocytes extracted from the spleens of SRBC-immunized mice cause a hemolytic reaction. This reaction brings about the formation of lytic plaques in the samples.
The results obtained are expressed as follows: […]
(a) number of plaque-forming cells (PFC) out of 10^6 cells;
(b) number of plaque-forming cells in the whole spleen.
The data obtained are processed with Dunnett's test (Biostatistics in Pharmacology, vol. II, Pergamon Press) to assess the statistical significance of differences recorded between groups of treated and control animals.

[4] = K. pneumoniae 1.5 × 10^5 cells, animals aged 6 weeks, 0.25 mg/kg/day i.p. day -5 to -1
[5] = K. pneumoniae 1.5 × 10^5 cells, animals aged 6 weeks, 25 mg/kg/day i.p. day -5 to -1
[6] = K. pneumoniae 3.5 × 10^5 cells, animals aged 12 weeks, 0.25 mg/kg/day i.p. day -5 to -1
[7] = K. pneumoniae 3.5 × 10^5 cells, animals aged 12 weeks, 25 mg/kg/day i.p. day -5 to -1
[8] = 25 mg/kg i.p., single administration on the day of immunization
[9] = 2,5 mg/kg i.p., single administration on the day of immunization
[10] = 2,5 mg/kg/day i.p. at days -2, 0, +2 (immunization at day 0)

Compound	"in vitro" chemotaxis (μ ± S.E.) (rat granulocytes [1])	chemotactic activity of rat granulocytes versus the control (in words) (rat granulocytes [1])	% Mortality (K. pneumoniae; [4])	% Mortality (K. pneumoniae; [5])	% Mortality (K. pneumoniae; [6])	% Mortality (K. pneumoniae; [7])	"in vitro-ex vivo" chemotaxis (μ ± S.E.) (rat granulocytes [2])	Dead/total (Leukemia L 1210 cells)	MST (mean survival time calculated by the median and the first interquartile range) (Leukemia L 1210 cells)	Weight control (x ± S.E.) (Leukemia L 1210 cells; Day 0)	Weight control (x ± S.E.) (Leukemia L 1210 cells; Day 2)	Weight control (x ± S.E.) (Leukemia L 1210 cells; Day 4)	Weight control (x ± S.E.) (Leukemia L 1210 cells; Day 7)	Weight control (x ± S.E.) (Leukemia L 1210 cells; Day 9)	Weight control (x ± S.E.) (Leukemia L 1210 cells; Day 11)	number of surviving animals at the indicated day (Leukemia L 1210 cells; Day 14)	Weight control (x ± S.E.) (Leukemia L 1210 cells; Day 14)	number of surviving animals at the indicated day (Leukemia L 1210 cells; Day 16)	Weight control (x ± S.E.) (Leukemia L 1210 cells; Day 16)	PFC/10^6 cells (x and ranges of variation) [3, 8]	further results
N=C(N)NCCC[C@H](NC(=O)OCCCCCn1cnc2c(=O)[nH]cnc21)C(=O)O [ST 789, N-5-(ipoxantin-9-yl) pentyloxycarbonylarginine, reference compound]	38.8 ± 4.47 μ	totally inactive	50%	40%	50%	60%	79.8 ± 1.53 μ	9/9	14.0 (14.0-15.0)	18.2 ± 0.3	18.0 ± 0.4	19.1 ± 0.3	20.1 ± 0.4	21.8 ± 0.4	24.0 ± 0.4	3	22.7 ± 0.9	1	22.5	339 (318-360) PFC/10^6 cells	PFC/spleen (x and ranges of variation) [3, 8]: 58137 (54505-62010) PFC/spleen
N-5-(ipoxantin-9-yl) pentyloxycarbonyl glycyl L-aspartate disodium salt [ST 657]	54.8 ± 3.05 μ	effective in enhancing the chemotactic activity	50%	20%	33%	60%	89.3 ± 1.95 μ	10/10	15.5 (13.0-17.0)	18.2 ± 0.5	18.2 ± 0.5	18.8 ± 0.5	20.1 ± 0.4	21.7 ± 0.6	23.9 ± 0.8	6	23.1 ± 0.6	3	22.4 ± 0.6	422 (403-443) PFC/10^6 cells	protective effect in immunodepressed infected mice (in words) (K. pneumoniae; comparison with ST 789, K. pneumoniae and S. typhimurium tables): protective effect more potent than ST 789; PFC/spleen (x and ranges of variation) [3, 8]: 61276 (54294-63323) PFC/spleen; PFC/10^6 cells (x and ranges of variation) [3, 9]: 393 (368-420) PFC/10^6 cells; PFC/spleen (x and ranges of variation) [3, 9]: 62356 (59939-64871) PFC/spleen; PFC/10^6 cells (x and ranges of variation) [3, 10]: 416 (372-465) PFC/10^6 cells; PFC/spleen (x and ranges of variation) [3, 10]: 67195 (59781-75529) PFC/spleen; increase of PFC number with respect to control (in words) ([3]; comparison with ST 789): more active than ST 789
